Experimental data published in paper PMC5983026, “Intraring allostery controls the function and assembly of a hetero-oligomeric class II chaperonin” (The FASEB Journal, 2018).

Tests used:
[1] = target: T1, Ta RhaD (rhamnose dehydrogenase) (Thermoplasma acidophilum, UniProt Q9HK58); assay: dehydrogenase activity, NADPH absorbance at […] nm; assay type: biochemical; conditions: NADP+ co-substrate, 55 °C; read-out of refolding assay
T1 sequence (Q9HK58 1-254): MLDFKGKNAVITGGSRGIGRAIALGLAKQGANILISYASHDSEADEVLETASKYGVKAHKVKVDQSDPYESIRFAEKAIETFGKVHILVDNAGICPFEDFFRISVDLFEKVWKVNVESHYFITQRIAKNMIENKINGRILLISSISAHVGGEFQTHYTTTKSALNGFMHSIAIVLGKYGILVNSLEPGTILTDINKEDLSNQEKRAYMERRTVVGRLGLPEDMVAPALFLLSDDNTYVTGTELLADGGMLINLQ

[2] = target: the molecule itself; assay: SEC + native gel or EMSA; α (intraloop His6) and β co-expressed in E. coli; complexes purified to homogeneity as in ref. 29; integrity by Superose 6 Increase SEC (main peak ≅950 kDa) and native-PAGE 3–12% (≅1 MDa); subunit composition by Tris-Acetate SDS-PAGE (7%) of the purified proteins

Molecule	dehydrogenase activity, NADPH absorbance at 340 nm [1]	stoichiometry N [2]
C[C@@H]1OC(O)[C@H](O)[C@H](O)[C@H]1O (stereo partly drawn) [L-rhamnose]	RhaD catalyzes the NADP^+-dependent oxidation of L-rhamnose	
Thermoplasma acidophilum thermosome α subunit D94E, with intraloop His6-tag (natural protein, Thermoplasma acidophilum thermosome α subunit, NCBI CAC12109; site-directed mutant of construct aK144HTTherm; also called Asp94α to a glutamate residue; not shown: His6, internal (intraloop), kept) MMTGQVPILVLKEGTQREQGKNAQRNNIEAAKAIADAVRTTLGPKGMDKMLVDSIGDIIISNDGATILKEMDVEHPTAKMIVEVSKAQDTAVGEGTTTAVVLSGELLKQAETLLDQGVHPTVISNGYRLAVNEARKIIDEIAEKSTDDATLRKIALTALSGKNTGLSNDFLADLVVKAVNAVAEVRDGKTIVDTANIKVDKKNGGSVNDTQFISGIVIDKEKVHSKMPDVVKNAKIALIDSALEIKKTEIEAKVQISDPSKIQDFLNQETNTFKQMVEKIKKSGANVVLCQKGIDDVAQHYLAKEGIYAVRRVKKSDMEKLAKATGAKIVTDLDDLTPSVLGEAETVEERKIGDDRMTFVMGCKNPKAVSILIRGGTDHVVSEVERALNDAIRVVAITKEDGKFLWGGGAVEAELAMRLAKYANSVGGREQLAIEAFAKALEIIPRTLAENAGIDPINTLIKLKAEHEKGRISVGVDLDNNGVGDMKAKGVVDPLRVKTHALESAVEVATMILRIDDVIASKKSTPPSGQGGQGQGMPGGGMPEY		16
